Measured values: article PMC12298351, “Novel 3,19-(N-Phenyl-3-(4-fluorophenyl)-pyrazole) Acetal of Andrographolide Promotes Cell Cycle Arrest and Apoptosis in MDA-MB-231 Breast Cancer Cells” (Pharmaceuticals, 2025)

Key:
HCT-15 = conditions: HCT-15, Colon
HCC-2998 = conditions: HCC-2998, Colon
RXF 393 = conditions: RXF 393, Renal
OVCAR-5 = conditions: OVCAR-5, Ovarian
SK-MEL-2 = conditions: SK-MEL-2, Melanoma
MDA-MB-435 = conditions: MDA-MB-435, Melanoma
UACC-62 = conditions: UACC-62, Melanoma
IGROV1 = conditions: IGROV1, Ovarian
UACC-257 = conditions: UACC-257, Melanoma
MDA-MB-468 = conditions: MDA-MB-468, Breast
DU-145 = conditions: DU-145, Prostate
OVCAR-4 = type: cell-based; conditions: OVCAR-4, Ovarian
BT-549 = type: cell-based; conditions: BT-549, Breast
HT29 = conditions: HT29, Colon
SK-OV-3 = conditions: SK-OV-3, Ovarian
A498 = conditions: A498, Renal
CAKI-1 = conditions: CAKI-1, Renal
OVCAR-3 = conditions: OVCAR-3, Ovarian
[1] = read-out: 50% lethal concentration (LC50), Non-Small Cell Lung
[2] = read-out: 50% lethal concentration (LC50)
[3] = read-out: 50% lethal concentration (LC50), Leukemia

`C=C1CCC2C3(C)COC(c4cn(-c5ccccc5)nc4-c4ccc(OC)cc4)OC3CCC2(C)C1CC=C1C(=O)OCC1O` (centres unmarked) [1j] gave a Total growth inhibition (TGI) (A549/ATCC; Non-Small Cell Lung) of 7.29 µM, a GI50 (A549/ATCC; Non-Small-Cell Lung) of 2.39 µM and a CC50 (A549/ATCC; [1]) of 62.2 µM. It also gave a Total growth inhibition (TGI) (EKVX; Non-Small Cell Lung) of 4.49 µM, a GI50 (EKVX; Non-Small-Cell Lung) of 1.96 µM and a CC50 (EKVX; [1]) greater than 100 µM. For the same molecule, the GI50 (LOX IMVI; Melanoma) was 1.57 µM, the Total growth inhibition (TGI) (LOX IMVI; Melanoma) was 2.93 µM and the CC50 (LOX IMVI; read-out: 50% lethal concentration (LC50), Melanoma) was 5.47 µM. For the same molecule, the Total growth inhibition (TGI) (NCI-H460; NCI-H460, Non-Small Cell Lung) was 3.5 µM, the GI50 (NCI-H460; NCI-H460, Non-Small-Cell Lung) was 1.74 µM and the CC50 (NCI-H460; read-out: 50% lethal concentration (LC50), NCI-H460, Non-Small Cell Lung) was 7.01 µM. The GI50 (HCT-15) was 1.58 µM, the Total growth inhibition (TGI) (HCT-15) was 3.37 µM and the CC50 (HCT-15; [2]) was 7.2 µM. For the same molecule, the Total growth inhibition (TGI) (HOP-62; HOP-62, Non-Small Cell Lung) was 10.4 µM, the GI50 (HOP-62; HOP-62, Non-Small-Cell Lung) was 2.65 µM and the CC50 (HOP-62; read-out: 50% lethal concentration (LC50), HOP-62, Non-Small Cell Lung) was 86.3 µM. It also gave a Total growth inhibition (TGI) (NCI-H522; NCI-H522, Non-Small Cell Lung) of 3.24 µM, a GI50 (NCI-H522; NCI-H522, Non-Small-Cell Lung) of 1.73 µM and a CC50 (NCI-H522; read-out: 50% lethal concentration (LC50), NCI-H522, Non-Small Cell Lung) of 6.06 µM. It also gave a Total growth inhibition (TGI) (NCI-H226; NCI-H226, Non-Small Cell Lung) of 3.36 µM, a GI50 (NCI-H226; NCI-H226, Non-Small-Cell Lung) of 1.72 µM and a CC50 (NCI-H226; read-out: 50% lethal concentration (LC50), NCI-H226, Non-Small Cell Lung) of 6.55 µM. The GI50 (SR; Leukemia) was 1.74 µM, the Total growth inhibition (TGI) (SR; Leukemia) was 5.21 µM and the CC50 (SR; [3]) was greater than 100 µM. For the same molecule, the GI50 (HCC-2998) was 1.7 µM, the Total growth inhibition (TGI) (HCC-2998) was 3.19 µM and the GI50 (RXF 393) was 0.89 µM. It also gave a Total growth inhibition (TGI) (RXF 393) of 2.2 µM, a CC50 (RXF 393; [2]) of 4.98 µM and a GI50 (OVCAR-5) of 1.86 µM. For the same molecule, the Total growth inhibition (TGI) (OVCAR-5) was 4.21 µM, the CC50 (OVCAR-5; [2]) was 9.52 µM and the GI50 (NCI/ADR-RES; Ovarian) was 1.94 µM. For the same molecule, the Total growth inhibition (TGI) (NCI/ADR-RES; Ovarian) was 4.41 µM, the CC50 (NCI/ADR-RES; read-out: 50% lethal concentration (LC50), Ovarian) was greater than 100 µM and the GI50 (SK-MEL-2) was 1.57 µM. For the same molecule, the Total growth inhibition (TGI) (SK-MEL-2) was 3.08 µM, the GI50 (MDA-MB-435) was 1.54 µM and the Total growth inhibition (TGI) (MDA-MB-435) was 3.17 µM. The CC50 (MDA-MB-435; [2]) was 6.51 µM, the GI50 (CCRF-CEM; Leukemia) was 0.64 µM and the Total growth inhibition (TGI) (CCRF-CEM; Leukemia) was greater than 100 µM. For the same molecule, the CC50 (CCRF-CEM; [3]) was greater than 100 µM, the GI50 (HS 578T; Breast) was 1.86 µM and the Total growth inhibition (TGI) (HS 578T; Breast) was 4.88 µM. It also gave a CC50 (HS 578T; read-out: 50% lethal concentration (LC50), Breast) greater than 100 µM, a GI50 (UACC-62) of 1.91 µM and a Total growth inhibition (TGI) (UACC-62) of 4.26 µM. For the same molecule, the CC50 (UACC-62; [2]) was 9.48 µM, the GI50 (IGROV1) was 1.37 µM and the Total growth inhibition (TGI) (IGROV1) was 2.99 µM. For the same molecule, the CC50 (IGROV1; [2]) was 6.52 µM, the GI50 (UACC-257) was 1.64 µM and the Total growth inhibition (TGI) (UACC-257) was 3.28 µM. The GI50 (MDA-MB-468) was 1.71 µM, the Total growth inhibition (TGI) (MDA-MB-468) was 3.25 µM and the CC50 (MDA-MB-468; [2]) was 6.16 µM. The GI50 (DU-145) was 2.04 µM, the Total growth inhibition (TGI) (DU-145) was 4.94 µM and the CC50 (DU-145; [2]) was 16.4 µM. For the same molecule, the GI50 (OVCAR-4) was 1.72 µM, the Total growth inhibition (TGI) (OVCAR-4) was 4.23 µM and the CC50 (OVCAR-4; [2]) was greater than 100 µM. It also gave a GI50 (BT-549) of 1.65 µM, a Total growth inhibition (TGI) (BT-549) of 3.23 µM and a GI50 (HT29) of 1.7 µM. The Total growth inhibition (TGI) (HT29) was 3.38 µM, the CC50 (HT29; [2]) was 6.73 µM and the Total growth inhibition (TGI) (NCI-H23; NCI-H23, Non-Small Cell Lung) was 3.74 µM. The GI50 (NCI-H23; NCI-H23, Non-Small-Cell Lung) was 1.71 µM, the CC50 (NCI-H23; read-out: 50% lethal concentration (LC50), NCI-H23, Non-Small Cell Lung) was 8.2 µM and the GI50 (SK-OV-3) was 3.44 µM. It also gave a Total growth inhibition (TGI) (SK-OV-3) of 23.9 µM, a CC50 (SK-OV-3; [2]) greater than 100 µM and a Total growth inhibition (TGI) (HOP-92; HOP-92, Non-Small Cell Lung) of 3.02 µM. For the same molecule, the GI50 (HOP-92; HOP-92, Non-Small-Cell Lung) was 1.47 µM, the CC50 (HOP-92; read-out: 50% lethal concentration (LC50), HOP-92, Non-Small Cell Lung) was 6.2 µM and the GI50 (A498) was 2.63 µM. For the same molecule, the Total growth inhibition (TGI) (A498) was 11.3 µM, the CC50 (A498; [2]) was 39.2 µM and the GI50 (CAKI-1) was 1.26 µM. The Total growth inhibition (TGI) (CAKI-1) was 2.64 µM, the CC50 (CAKI-1; [2]) was 5.54 µM and the GI50 (OVCAR-3) was 1.5 µM. It also gave a Total growth inhibition (TGI) (OVCAR-3) of 2.96 µM and a CC50 (OVCAR-3; [2]) of 5.84 µM.
